Assay [1] has as its target T1, P. falciparum 2-trans-enoyl-ACP reductase (PfENR) (Plasmodium falciparum, UniProt C6KSZ2).
T1 construct: gene PF3D7_0615100; recombinant His-tagged PfENR (pGS-21a, E. coli BL21(DE3))
T1 sequence (C6KSZ2 96-432): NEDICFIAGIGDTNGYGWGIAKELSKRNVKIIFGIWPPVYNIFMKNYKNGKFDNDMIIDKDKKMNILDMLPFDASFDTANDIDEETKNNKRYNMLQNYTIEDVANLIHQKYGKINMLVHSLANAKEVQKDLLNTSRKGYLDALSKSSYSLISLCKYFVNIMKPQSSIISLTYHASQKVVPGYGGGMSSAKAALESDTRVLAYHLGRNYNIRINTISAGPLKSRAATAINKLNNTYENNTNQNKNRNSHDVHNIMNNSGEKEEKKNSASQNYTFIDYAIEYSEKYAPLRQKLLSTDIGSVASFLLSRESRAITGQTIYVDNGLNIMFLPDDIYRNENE
In words: NADH consumption enzymatic assay ([…] nm) with crotonyl-CoA, purified recombinant PfENR; positive control inhibitor. It is filed as biochemical.

Assay [2] deals with T1, P. falciparum 2-trans-enoyl-ACP reductase (PfENR). The assay is described as follows: NADH consumption enzymatic assay ([…] nm) with crotonyl-CoA, purified recombinant PfENR. It is filed as biochemical.

What is called IC50 is the point on the concentration scale where inhibition reaches its midpoint. For the compound `Oc1cc(Cl)ccc1Oc1ccc(Cl)cc1Cl` [TCL, Triclosan], the IC50 in assay [1] came to 3.58 µM. For the compound `CCc1ccc(Oc2ccc(NS(=O)(=O)c3ccc4ccccc4c3)cc2)cc1` [LG2, N-[4-(4-ethylphenoxy)phenyl]naphthalene-2-sulfonamide], the concentration for half-maximal inhibition (IC50) in assay [2] came to 3.95 µM.

Source of the values: PMC11137734, “Exploring Novel Antimalarial Compounds Targeting Plasmodium falciparum Enoyl-ACP Reductase: Computational and Experimental Insights” (ACS Omega, 2024).
